One substance from article PMC10283052, “Intranasal delivery of mitochondrial protein humanin rescues cell death and promotes mitochondrial function in Parkinson's disease” (Theranostics, 2023) can be followed below.

Assay [1] has as its system JNK, p38 MAPK, AKT, ERK. Kind of assay: Signaling kinase activation in striatum of MPTP mice, western blot. In kind it is in vivo, mouse. The settings on record: MPTP PD mice, intranasal HN 0.1 and 5 mg/kg. On the procedure: A mouse model of PD was generated using the neurotoxin MPTP-HCl (Sigma-Aldrich, St. Louis, MO, USA), as previously described. Seven- to eight-week-old male C57BL/6J mice were injected with MPTP (20 mg/kg/day) for five consecutive days for the subacute delivery of MPTP. The mice in the control group received the same volume of phosphate buffer saline (PBS).
For intranasal HN treatment, the synthetic HN peptide was delivered according to a procedure reported by Capsoni et al. The synthetic HN peptide was diluted in ddH2O to a concentration of 0.1 and 5 mg/kg for mice (total volume of 40 μL) at 37 ℃ with mild stirring. The mice were held firmly in one hand in a supine position with their head at 90°. Synthetic HN was administered in the form of 5-μL drops over 20 min in alternating nostrils every 3 min. After administration, the heads of the mice were held in the same position to prevent loss of the applied solution from the nares.
Mouse brain tissue samples and cells were homogenized in radioimmunoprecipitation assay (RIPA) buffer (Cell Signaling, Danvers, MA, USA) in the presence of a protease and phosphatase inhibitor cocktail (Thermo Fisher Scientific). The samples were sonicated on ice, and the supernatant was collected after centrifugation at 4°C at 10,000 g for 5 min. […] The results were analyzed using the ImageJ densitometry system. […]
For orientation: Immunoblotting shows a protein as a band on a membrane.

For assay [2], the system named is midbrain dopaminergic neurons from embryonic mouse. Kind of assay: HN-induced intracellular humanin expression, western blot, primary neurons. In kind it is cell-based. The settings on record: HN treatment 24 h (1 μM in Fig 2A), basal humanin undetectable. On the procedure: Primary mesencephalic cell cultures were prepared using gestational day 13.5 embryos from C57BL/6J mice, as previously described. The mesencephalon was dissected from the embryos and dissociated in a medium containing 0.25% trypsin-EDTA and 0.05% DNase in PBS for 15 min at 37 °C. Tissue samples were mechanically dissociated by gentle pipetting using Pasteur pipettes. After centrifugation at 400 x g for 5 min, the cells were plated in Neurobasal-A medium (Thermo Fisher Scientific, Waltham, MA, USA) supplemented with 2% B27 supplement (Thermo Fisher Scientific), 1× Glutamax (Thermo Fisher Scientific), 5% fetal bovine serum (FBS), 0.36% D-glucose, and 1% Penicillin/Streptomycin (P/S) in poly-L-ornithine/laminin (Sigma-Aldrich)-coated plates. On day 4 in vitro (DIV), the plating medium was replaced, and the neurons were used on DIV 8 for subsequent experiments.
For HN treatment of cells, HN stock solution was first incubated at 37 ℃ with mild stirring for 0.5 h. The solution was then added to the culture medium to achieve a desirable final concentration as described above.
Mouse brain tissue samples and cells were homogenized in radioimmunoprecipitation assay (RIPA) buffer (Cell Signaling, Danvers, MA, USA) in the presence of a protease and phosphatase inhibitor cocktail (Thermo Fisher Scientific). […] The results were analyzed using the ImageJ densitometry system. […]

Assay [3] concerns SH-SY5Y cells. Kind of assay: Real-time qPCR of genes of mitochondrial function. In kind it is cell-based, human. To be noted: HN 20 μM, 24 h. Here is the method: For real-time qPCR, total RNA was extracted using TRIzol reagent (Thermo Fisher Scientific). cDNA was synthesized using a cDNA synthesis kit (Bioneer Corporation), according to the manufacturer's protocol. The mRNA levels were analyzed in a LightCycler 96 (Roche, Basel, Switzerland) using SYBR Green I master mix and SensiFAST™ SYBR® No-ROX Kit (Bioline, Paris, France). B2M (beta-2-microglobulin) gene expression was used to normalize gene expression data. The primer sequences used in this experiment are in Table S2.

With “humanin (MAPRGFSCLLLLTSEIDLPVKRRA; Humanin; UniProt Q8IVG9 1-24, looked up) [HN, mitochondria-derived peptide encoded by the mitochondrial genome, synthesized by Fmoc-based SPPS at GL Biochem]”, the “activation of JNK and p38 MAPK in striatum” value in assay [1] was “inhibited the activation of JNK and p38 MAPK”. In addition, in assay [1] (dose-dependent), the “activation of AKT and ERK in brain tissue” value was “promoted the activation of AKT and ERK”. The intracellular humanin expression entry in assay [2] is listed as “induced its intracellular expression in a dose-dependent manner”. The “transcript levels of mitochondrial biogenesis (PGC-1α, NRF1, ESRRA) and oxidative phosphorylation (SDHA, ATP5F1A, ATP5F1D) genes” value in assay [3] was “significant increase”. Moreover, the “expression of fatty acid metabolism and TCA cycle genes” value in assay [3] (ACC2, ACLY, FASN, IDH3A) was “a significant alteration was not observed”.
